Results reported in PubChem BioAssay (NCI).
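How tested: cells in 96-well plates exposed to compound for 48 hours at five concentrations. At the GI50, growth is halved. Definition used: TGI = concentration required for complete inhibition of growth.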

How the values were obtained:
Test in all cases: NCI tumour cell line growth inhibition, 48 h; in the data active means GI50 below about 0.43 µM; inactive means the rest
786-0 renal = tested on: 786-0 renal
A498 renal = tested on: A498 renal
A549 NSCLC = tested on: A549 NSCLC
ACHN renal = tested on: ACHN renal
BT-549 breast = tested on: BT-549 breast
CAKI-1 renal = tested on: CAKI-1 renal
CCRF-CEM leukemia = tested on: CCRF-CEM leukemia
COLO 205 colon = tested on: COLO 205 colon
DU-145 prostate = tested on: DU-145 prostate
HCT-116 colon = tested on: HCT-116 colon
HCT-15 colon = tested on: HCT-15 colon
HOP-62 NSCLC = tested on: HOP-62 NSCLC
HOP-92 NSCLC = tested on: HOP-92 NSCLC
HS 578T breast = tested on: HS 578T breast
HT29 colon = tested on: HT29 colon
IGROV1 ovarian = tested on: IGROV1 ovarian
K-562 leukemia = tested on: K-562 leukemia
KM12 colon = tested on: KM12 colon
LOX IMVI melanoma = tested on: LOX IMVI melanoma
M14 melanoma = tested on: M14 melanoma
MALME-3M melanoma = tested on: MALME-3M melanoma
MCF7 breast = tested on: MCF7 breast
MDA-MB-231 breast = tested on: MDA-MB-231 breast
MOLT-4 leukemia = tested on: MOLT-4 leukemia
NCI-H226 lung = tested on: NCI-H226 lung
NCI-H23 lung = tested on: NCI-H23 lung
NCI-H460 lung = tested on: NCI-H460 lung
NCI-H522 lung = tested on: NCI-H522 lung

COc1ccc(-c2[nH]c3ccc(OC)cc3c2C=C(C#N)C#N)cc1
1.02 µM: TGI (COLO 205 colon)
inactive: GI50 (786-0 renal) 14.3 µM | GI50 (A549 NSCLC) 3.78 µM | GI50 (ACHN renal) > 100 µM | GI50 (BT-549 breast) > 100 µM | GI50 (CCRF-CEM leukemia) > 100 µM | GI50 (DU-145 prostate) 0.752 µM | GI50 (HCT-116 colon) 0.477 µM | GI50 (HCT-15 colon) 0.766 µM | GI50 (HOP-62 NSCLC) 3.34 µM | GI50 (HOP-92 NSCLC) > 47.9 µM | GI50 (HS 578T breast) 0.924 µM | GI50 (IGROV1 ovarian) > 24 µM | GI50 (KM12 colon) 0.52 µM | GI50 (LOX IMVI melanoma) > 100 µM | GI50 (MALME-3M melanoma) > 100 µM | GI50 (MDA-MB-231 breast) 1.18 µM | GI50 (NCI-H226 lung) 1.45 µM | GI50 (NCI-H23 lung) 1.25 µM | GI50 (NCI-H460 lung) 0.463 µM | GI50 (NCI-H522 lung) > 100 µM
> 100 µM: TGI (786-0 renal) | TGI (A549 NSCLC) | TGI (ACHN renal) | TGI (BT-549 breast) | TGI (CAKI-1 renal) | TGI (CCRF-CEM leukemia) | TGI (DU-145 prostate) | TGI (HCT-116 colon) | TGI (HCT-15 colon) | TGI (HOP-62 NSCLC) | TGI (HOP-92 NSCLC) | TGI (HS 578T breast) | TGI (HT29 colon) | TGI (IGROV1 ovarian) | TGI (K-562 leukemia) | TGI (KM12 colon) | TGI (LOX IMVI melanoma) | TGI (M14 melanoma) | TGI (MALME-3M melanoma) | TGI (MCF7 breast) | TGI (MDA-MB-231 breast) | TGI (MOLT-4 leukemia) | TGI (NCI-H226 lung) | TGI (NCI-H23 lung) | TGI (NCI-H460 lung)
active: GI50 (A498 renal) 0.075 µM | GI50 (COLO 205 colon) 0.288 µM | GI50 (HT29 colon) 0.404 µM | GI50 (K-562 leukemia) 0.343 µM | GI50 (M14 melanoma) 0.376 µM | GI50 (MCF7 breast) 0.382 µM
3.97 µM: TGI (A498 renal)
